Experimental data reported in US7642221B2, “Substituted thien-3-yl-sulphonylamino(thio)carbonyl-triazoline(ethi)ones” (Bayer Aktiengesellschaft, priority 1999, dated 2010).

Assays:
Type in all cases: in vivo
[1] = system: weeds; assay: Post-emergence test, activity against weeds
Procedure: (§1) • Solvent: 5 parts by weight of acetone • Emulsifier: 1 part by weight of alkylaryl polyglycol ether
(§2) To produce a suitable preparation of active compound, one part by weight of active compound is mixed with the stated amount of solvent, the stated amount of emulsifier is added and the concentrate is diluted with water to the desired concentration.
(§3) Test plants which have a height of 5-15 cm are sprayed with the preparation of active compound such that the particular amounts of active compound desired are applied per unit area. The concentration of the spray liquor is chosen so that the particular amounts of active compound desired are applied in 1000 l of water/ha.
(§4) After three weeks, the degree of damage to the plants is rated in % damage in comparison to the development of the untreated control.
(§5) The figures denote: • 0%=no effect (like untreated control) • 100%=total destruction

[2] = system: Sinapis; assay: Post-emergence test/greenhouse; details: greenhouse, 250 g of ai/ha, rated after three weeks
Procedure: as §1, §2, §3, §4, §5

[3] = system: Setaria; assay: Post-emergence test/greenhouse; details: greenhouse, 250 g of ai/ha, rated after three weeks
Procedure: as §1, §2, §3, §4, §5

[4] = system: Xanthium; assay: Post-emergence test/greenhouse; details: greenhouse, 250 g of ai/ha, rated after three weeks
Procedure: as §1, §2, §3, §4, §5

[5] = system: Abutilon; assay: Post-emergence test/greenhouse; details: greenhouse, rated after three weeks
Procedure: as §1, §2, §3, §4, §5

[6] = system: Avenafatua; assay: Post-emergence test/greenhouse; details: greenhouse, 250 g of ai/ha, rated after three weeks
Procedure: as §1, §2, §3, §4, §5

[7] = system: Alopecurus; assay: Post-emergence test/greenhouse; details: greenhouse, 250 g of ai/ha, rated after three weeks
Procedure: as §1, §2, §3, §4, §5

[8] = system: Amaranthus; assay: Post-emergence test/greenhouse; details: greenhouse, rated after three weeks
Procedure: as §1, §2, §3, §4, §5

[9] = system: weeds; assay: Pre-emergence test, activity against weeds
Procedure: as §1
(§6) To produce a suitable preparation of active compound, 1 part by weight of active compound is mixed with the stated amount of solvent, the stated amount of emulsifier is added and the concentrate is diluted with water to the desired concentration.
(§7) Seeds of the test plants are sown in normal soil. After about 24 hours, the soil is sprayed with the preparation of active compound such that the particular amount of active compound desired is applied per unit area. The concentration of the spray liquor is chosen so that the particular amount of active compound desired is applied in 1000 liters of water per hectare.
as §4
(§8) The figure denote: • 0%=no effect (like untreated control) • 100%=total destruction

[10] = system: Solanum; assay: Pre-emergence test/greenhouse; details: greenhouse, rated after three weeks
Procedure: as §1, §6, §7, §4, §8

[11] = system: Setaria; assay: Pre-emergence test/greenhouse; details: greenhouse, 60 g of ai/ha, rated after three weeks
Procedure: as §1, §6, §7, §4, §8

[12] = system: Chenopodium; assay: Pre-emergence test/greenhouse; details: greenhouse, 60 g of ai/ha, rated after three weeks
Procedure: as §1, §6, §7, §4, §8

[13] = system: Maize; assay: Pre-emergence test/greenhouse; details: greenhouse, 60 g of ai/ha, rated after three weeks
Procedure: as §1, §6, §7, §4, §8

[14] = system: Alopecurus; assay: Pre-emergence test/greenhouse; details: greenhouse, 60 g of ai/ha, rated after three weeks
Procedure: as §1, §6, §7, §4, §8

[15] = system: Amaranthus; assay: Pre-emergence test/greenhouse; details: greenhouse, 60 g of ai/ha, rated after three weeks
Procedure: as §1, §6, §7, §4, §8

[16] = system: Matricaria; assay: Pre-emergence test/greenhouse; details: greenhouse, 60 g of ai/ha, rated after three weeks
Procedure: as §1, §6, §7, §4, §8

[17] = system: Digitaria; assay: Pre-emergence test/greenhouse; details: greenhouse, 60 g of ai/ha, rated after three weeks
Procedure: as §1, §6, §7, §4, §8

[18] = system: Solanum; assay: Post-emergence test/greenhouse; details: greenhouse, 8 g of ai/ha, rated after three weeks
Procedure: as §1, §2, §3, §4, §5

[19] = system: Ipomoea; assay: Post-emergence test/greenhouse; details: greenhouse, 8 g of ai/ha, rated after three weeks
Procedure: as §1, §2, §3, §4, §5

[20] = system: Wheat; assay: Post-emergence test/greenhouse; details: greenhouse, 8 g of ai/ha, rated after three weeks
Procedure: as §1, §2, §3, §4, §5

[21] = system: Stellaria; assay: Post-emergence test/greenhouse; details: greenhouse, 8 g of ai/ha, rated after three weeks
Procedure: as §1, §2, §3, §4, §5

[22] = system: Matricaria; assay: Post-emergence test/greenhouse; details: greenhouse, 8 g of ai/ha, rated after three weeks
Procedure: as §1, §2, §3, §4, §5

[23] = system: Bromus; assay: Pre-emergence test/greenhouse; details: greenhouse, 125 g of ai/ha, rated after three weeks
Procedure: as §1, §6, §7, §4, §8

[24] = system: Viola; assay: Pre-emergence test/greenhouse; details: greenhouse, 125 g of ai/ha, rated after three weeks
Procedure: as §1, §6, §7, §4, §8

[25] = system: Veronica; assay: Pre-emergence test/greenhouse; details: greenhouse, 125 g of ai/ha, rated after three weeks
Procedure: as §1, §6, §7, §4, §8

[26] = system: Cyperus; assay: Pre-emergence test/greenhouse; details: greenhouse, 125 g of ai/ha, rated after three weeks
Procedure: as §1, §6, §7, §4, §8

[27] = system: Wheat; assay: Pre-emergence test/greenhouse; details: greenhouse, 125 g of ai/ha, rated after three weeks
Procedure: as §1, §6, §7, §4, §8

[28] = system: Echinochloa; assay: Pre-emergence test/greenhouse; details: greenhouse, 125 g of ai/ha, rated after three weeks
Procedure: as §1, §6, §7, §4, §8

[29] = system: Stellaria; assay: Pre-emergence test/greenhouse; details: greenhouse, 125 g of ai/ha, rated after three weeks
Procedure: as §1, §6, §7, §4, §8

## CCc1nn(C(=O)NS(=O)(=O)c2c(C(=O)OC)csc2C)c(=O)n1C [Example 11]
[1]
  activity against weeds: very strong activity
[2]
  degree of damage to the plants, Sinapis: 100%
[3]
  degree of damage to the plants, Setaria: 100%
[4]
  degree of damage to the plants, Xanthium: 100%
[5]; 250 g of ai/ha
  degree of damage to the plants, Abutilon: 100%
[6]
  degree of damage to the plants, Avenafatua: 100%
[7]
  degree of damage to the plants, Alopecurus: 100%
[8]; 250 g of ai/ha
  degree of damage to the plants, Amaranthus: 100%
[9]
  activity against weeds: very strong activity
[10]; 60 g of ai/ha
  degree of damage to the plants, Solanum: 100%
[11]
  degree of damage to the plants, Setaria: 100%
[12]
  degree of damage to the plants, Chenopodium: 100%
[13]
  degree of damage to the plants, Maize: 10%
[14]
  degree of damage to the plants, Alopecurus: 100%
[15]
  degree of damage to the plants, Amaranthus: 100%
[16]
  degree of damage to the plants, Matricaria: 100%
[17]
  degree of damage to the plants, Digitaria: 100%

## COC(=O)c1csc(C)c1S(=O)(=O)NC(=O)n1nc(OC(C)C)n(C)c1=O [Example 4]
[1]
  activity against weeds: very strong activity
[18]
  degree of damage to the plants, Solanum: 95%
[19]
  degree of damage to the plants, Ipomoea: 95%
[5]; 8 g of ai/ha
  degree of damage to the plants, Abutilon: 95%
[20]
  degree of damage to the plants, Wheat: 10%
[21]
  degree of damage to the plants, Stellaria: 95%
[8]; 8 g of ai/ha
  degree of damage to the plants, Amaranthus: 95%
[22]
  degree of damage to the plants, Matricaria: 90%
[9]
  activity against weeds: very strong activity
[10]; 125 g of ai/ha
  degree of damage to the plants, Solanum: 100%
[23]
  degree of damage to the plants, Bromus: 100%
[24]
  degree of damage to the plants, Viola: 100%
[25]
  degree of damage to the plants, Veronica: 100%
[26]
  degree of damage to the plants, Cyperus: 100%
[27]
  degree of damage to the plants, Wheat: 20%
[28]
  degree of damage to the plants, Echinochloa: 100%
[29]
  degree of damage to the plants, Stellaria: 100%
